Data on five compounds can be found in patent publication US20250222003A1, “PHARMACEUTICAL COMPOSITION FOR TREATING SOLID TUMORS” (Eisai R&D Management Co., Ltd., priority 2021, published 2025).

For the experiment, the system named is patients with a solid tumor. Kind of experiment: Suppression of nausea or vomiting associated with administration of Compound A by antiemetics. Format: in vivo, human. As to conditions: for number of subjects that did not show improvement of vomiting after the antiemetic / number of subjects in which vomiting could be suppressed / number of subjects showing improvement after switch from non-5-HT3 antiemetic to the 5-HT3 receptor antagonist: of 20 subjects; for number of subjects that did not show improvement of vomiting after the antiemetic: domperidone, metoclopramide or prochlorperazine; for number of subjects in which vomiting could not be suppressed: Compound A 160 mg BID; for number of subjects in which vomiting could not be suppressed / number of subjects in which vomiting could be suppressed / number of subjects showing improvement after switch from non-5-HT3 antiemetic to the 5-HT3 receptor antagonist: ramosetron or granisetron; for number of subjects showing improvement of vomiting by the antiemetic: of 20 subjects complaining of vomiting during Cycle 1, prochlorperazine or metoclopramide. The source says: For subjects of administration that had the gastrointestinal symptoms, nausea or vomiting, the results of administration of various antiemetics were investigated to determine whether they could suppress the occurrence of nausea or vomiting. The antiemetics used were domperidone ([…], Nauzelin tablet), metoclopramide (peripheral D2 receptor antagonist, metoclopramide tablet), ramosetron hydrochloride (5-HT3 receptor antagonist, Nasea tablet), granisetron (5-HT3 receptor antagonist (Kytril tablet), and the like.
The antiemetics were timely administered to 20 subjects of administration that complained of vomiting during Cycle 1.
FIGS. 1 and 2 are graphs showing the relationship between Cmax(Cmax,ss) or AUC (AUC(0-tau),ss) and the vomiting flag for each test subject at the time of CID8. For example, the vomiting flag 3 means a case in which treatment with an antiemetic other than the 5-HT3 receptor antagonist was first attempted but vomiting could not be suppressed, and vomiting could be suppressed when the antiemetic was switched to the 5-HT3 receptor antagonist.
Five additional patients were investigated whether the occurrence of nausea or vomiting, which is an adverse event having a causal relationship with Compound A, could be suppressed. Ramosetron hydrochloride or granisetron hydrochloride (5-HT3 receptor antagonist) was administered to four patients of administration that complained of vomiting during Cycle 1. Of the four patients that complained of vomiting, three patients received granisetron hydrochloride to prevent the gastrointestinal symptoms (nausea, vomiting) associated with administration of Compound A.

`O=c1[nH]c2ccccc2n1CCCN1CCC(n2c(=O)[nH]c3cc(Cl)ccc32)CC1` [domperidone]: the “number of subjects that did not show improvement of vomiting after the antiemetic” value was “four”.

Regarding `CN1[C@@H]2CCC[C@H]1C[C@@H](NC(=O)c1nn(C)c3ccccc13)C2.Cl` [granisetron, 1-methyl-N-(endo-9-methyl-9-azabicyclo[3.3.1]non-3-yl)-1H-indazole-3-carboxamide hydrochloride], the “number of subjects in which vomiting could not be suppressed” value is recorded as “two”, the “number of subjects in which vomiting could be suppressed” value is “twelve” and the “number of subjects showing improvement after switch from non-5-HT3 antiemetic to the 5-HT3 receptor antagonist” value was “four”. For the same compound, the “number of test subjects in which vomiting could be suppressed when given after symptoms of nausea or vomiting” value (additional patients, Compound A 120 mg BID) was “one”. The “vomiting after prophylactic administration” value (additional patients, Compound A 120 mg BID, three patients) was “no vomiting occurred afterwards”. In addition, the “number of subjects in which vomiting could be prevented when given at onset of nausea” value (of the twelve subjects) is given as “two”.

Take `CCN(CC)CCNC(=O)c1cc(Cl)c(N)cc1OC` [metoclopramide]: the “number of subjects showing improvement of vomiting by the antiemetic” value was “Two” and the “number of subjects that did not show improvement of vomiting after the antiemetic” value is on record as “four”.

As for `CN1CCN(CCCN2c3ccccc3Sc3ccc(Cl)cc32)CC1` [prochlorperazine], the “number of subjects showing improvement of vomiting by the antiemetic” value was “Two” and the “number of subjects that did not show improvement of vomiting after the antiemetic” value is recorded as “four”.

Regarding `Cl.Cn1cc(C(=O)[C@@H]2CCc3[nH]cnc3C2)c2ccccc21` [ramosetron, (−)-(R)-5-[(1-methyl-1H-indol-3-yl)carbonyl]-4,5,6,7-tetrahydro-1H-benzimidazole monohydrochloride], the “number of subjects in which vomiting could not be suppressed” value was “two”, the “number of subjects in which vomiting could be suppressed” value is given as “twelve” and the “number of subjects showing improvement after switch from non-5-HT3 antiemetic to the 5-HT3 receptor antagonist” value is on record as “four”.
